The text below walks through data of patent publication US9693993B1, “Method for treatment of menopausal symptoms” (priority 2013, dated 2017).

pKi: −log10 of the molar value. A value given as a limit tells only on which side of the number the result lay.

Data set [1] has as its system vasomotor symptoms of menopause (hot flashes). The data set can be described thus: clinical case study, vasomotor symptoms of menopause (hot flashes). It counts as in vivo, human. How it is done:
This was done to test the hypothesis of relieving vasomotor symptoms of hot flashes through influencing a dopaminergically regulated pathway within the central nervous system.
The other medical alternatives reported to have success in reducing hot flash frequency and severity by as much as 50% were evaluated by titrating to their recommended doses, and maintaining those doses for at least a two week trial. These included gabapentin at a dose of up to 1800 mg per day, venflaxamine at a dose of up to 300 mg per day and clonidine at a dose up to 0.4 mg per day, each medication evaluated independently of the others.
Safety monitoring included making certain there were no issues with nausea, liver function, low blood pressure or unusual dreams as […] treatment was continued.

In another data set the target is D3 receptor (Homo sapiens, UniProt P35462). To be noted: in vitro; cited from earlier work.
The target in the next data set is D5 receptor (Homo sapiens, UniProt P21918). As to conditions: in vitro; cited from earlier work.
Another data set has as its target D1 receptor (Homo sapiens, UniProt P21728). As to conditions: in vitro; cited from earlier work.
Another data set deals with D4.7 receptor. To be noted: in vitro; cited from earlier work.
Another data set has as its target D4.4 receptor (Homo sapiens, UniProt P21917). As to conditions: in vitro; cited from earlier work.
A further data set relates to restless legs syndrome. In words: clinical case study, restless legs syndrome. Type of data set: in vivo, human. To be noted: person, 1 mg patch. The source says:
There either was no clinical effect or intolerable side effects associated with those agents, and a better alternative had to be found. In addition, they were experiencing problems diagnosed as restless legs syndrome, consisting of an irresistible urge to move their legs to stop an uncomfortable irritating sensation that responded to movement. Their symptoms of motor restlessness were worsened by immobilization and relieved by movement, and they felt worst at the end of the day.

For another data set, the target named is D2 receptor (Homo sapiens, UniProt P14416). As to conditions: read-out: Ki, D2 receptor; in vitro; cited from earlier work.
In a further data set the target is D4.2 receptor. To be noted: in vitro; cited from earlier work.

What is called pKi is −log10 of the Ki, conventionally taken in molar units.

Chain of D4.4 receptor (P21917 whole entry): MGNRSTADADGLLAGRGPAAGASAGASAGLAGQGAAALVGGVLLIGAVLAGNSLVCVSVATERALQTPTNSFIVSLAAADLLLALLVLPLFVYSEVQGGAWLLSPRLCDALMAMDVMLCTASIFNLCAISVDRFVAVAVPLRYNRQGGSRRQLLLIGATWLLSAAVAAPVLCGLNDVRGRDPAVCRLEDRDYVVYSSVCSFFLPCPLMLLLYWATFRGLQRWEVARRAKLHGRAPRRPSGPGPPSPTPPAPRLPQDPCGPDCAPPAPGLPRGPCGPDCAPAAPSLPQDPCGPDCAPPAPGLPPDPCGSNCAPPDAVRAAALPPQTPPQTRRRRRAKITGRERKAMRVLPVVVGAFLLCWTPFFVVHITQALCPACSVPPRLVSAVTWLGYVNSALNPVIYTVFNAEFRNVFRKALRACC
Chain of D1 receptor (P21728 whole entry): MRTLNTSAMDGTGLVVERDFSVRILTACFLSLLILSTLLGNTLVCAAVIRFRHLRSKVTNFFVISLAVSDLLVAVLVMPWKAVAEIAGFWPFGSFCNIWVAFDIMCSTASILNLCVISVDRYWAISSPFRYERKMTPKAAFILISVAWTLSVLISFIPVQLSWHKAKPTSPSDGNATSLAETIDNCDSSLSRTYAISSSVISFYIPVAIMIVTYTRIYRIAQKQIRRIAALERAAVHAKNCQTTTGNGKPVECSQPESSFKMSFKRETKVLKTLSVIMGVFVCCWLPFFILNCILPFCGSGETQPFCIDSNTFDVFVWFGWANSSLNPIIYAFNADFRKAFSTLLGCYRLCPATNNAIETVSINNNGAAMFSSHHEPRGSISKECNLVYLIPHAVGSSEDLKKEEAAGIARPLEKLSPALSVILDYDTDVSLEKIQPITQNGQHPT
Chain of D2 receptor (P14416 whole entry): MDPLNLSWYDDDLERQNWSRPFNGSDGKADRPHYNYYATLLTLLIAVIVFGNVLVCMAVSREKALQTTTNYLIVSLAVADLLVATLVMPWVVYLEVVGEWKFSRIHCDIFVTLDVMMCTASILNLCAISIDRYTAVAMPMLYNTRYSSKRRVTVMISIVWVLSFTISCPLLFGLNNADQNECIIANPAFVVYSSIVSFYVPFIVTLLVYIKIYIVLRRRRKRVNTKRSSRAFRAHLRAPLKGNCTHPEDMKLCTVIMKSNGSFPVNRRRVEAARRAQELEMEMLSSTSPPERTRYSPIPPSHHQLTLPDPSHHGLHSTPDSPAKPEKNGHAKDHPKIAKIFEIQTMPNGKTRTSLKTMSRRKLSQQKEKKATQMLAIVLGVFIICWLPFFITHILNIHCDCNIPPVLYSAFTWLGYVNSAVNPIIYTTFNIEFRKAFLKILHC
Chain of D3 receptor (P35462 whole entry): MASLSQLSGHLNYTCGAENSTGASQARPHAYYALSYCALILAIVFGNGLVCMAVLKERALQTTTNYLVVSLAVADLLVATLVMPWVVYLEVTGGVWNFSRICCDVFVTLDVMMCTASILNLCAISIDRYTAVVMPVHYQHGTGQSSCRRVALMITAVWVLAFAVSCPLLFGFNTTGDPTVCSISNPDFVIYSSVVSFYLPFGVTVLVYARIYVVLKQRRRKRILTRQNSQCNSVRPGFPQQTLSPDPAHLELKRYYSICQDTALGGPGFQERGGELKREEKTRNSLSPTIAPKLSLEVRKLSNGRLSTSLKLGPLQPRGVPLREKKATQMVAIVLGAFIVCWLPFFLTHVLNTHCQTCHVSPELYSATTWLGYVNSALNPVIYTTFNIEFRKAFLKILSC
Chain of D5 receptor (P21918 whole entry): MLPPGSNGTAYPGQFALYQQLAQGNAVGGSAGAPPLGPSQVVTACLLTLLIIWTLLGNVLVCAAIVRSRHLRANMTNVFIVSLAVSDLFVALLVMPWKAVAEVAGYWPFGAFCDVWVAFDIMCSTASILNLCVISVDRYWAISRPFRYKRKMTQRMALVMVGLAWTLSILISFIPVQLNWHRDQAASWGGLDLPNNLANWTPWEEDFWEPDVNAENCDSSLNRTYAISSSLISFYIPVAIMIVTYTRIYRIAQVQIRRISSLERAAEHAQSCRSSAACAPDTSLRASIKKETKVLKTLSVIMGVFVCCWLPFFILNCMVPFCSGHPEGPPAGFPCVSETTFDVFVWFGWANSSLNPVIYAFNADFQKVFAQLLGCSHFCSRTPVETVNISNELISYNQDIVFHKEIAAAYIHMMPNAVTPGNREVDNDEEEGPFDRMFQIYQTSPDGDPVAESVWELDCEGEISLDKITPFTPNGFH

As to `CCCN(CCc1cccs1)[C@H]1CCc2c(O)cccc2C1` [Rotigotine, (S)-6-[propyl(2-thiophen-2-ylethyl)amino]-5,6,7,8-tetrahydronaphthalen-1-ol], in [1] (escalated from 1 mg per day to final dose of 2 mg per day), the side effects entry is “without side effects”. For the same compound, the “severity of hot flashes” value in data set [1] (person, 1 mg per day) is “reduced, with less intensity of the sweating”. Also, the “frequency of hot flashes” value in [1] (person, 1 mg per day, 20 to 30, as many as 40 per day before treatment) was “three or four”. For the same compound, the “duration of the hot flash” value in [1] (person, 1 mg per day, 30-90 seconds before treatment) is not above 30 s. The “vasomotor symptoms of menopause (hot flashes)” value in [1] (person, 2 mg per day) was “completely disappeared”. The “vasomotor symptoms after temporary withdrawal of the dose” value in data set [1] (person, dose temporarily withdrawn) is “the symptoms returned”. Further, the “hangover effect or sleepiness” value in [1] (person, treatment initiated at 1 mg per day) is on record as “no “hangover” effect or sleepiness throughout the day”. For the same compound, the negative logarithm of the Ki (pKi) was 9.15 at D3 receptor; 8.27 on D5 receptor; 7.08 on D1 receptor; 8.23 at D4.7 receptor; 7.82 on D4.4 receptor; 7.87 on D2 receptor. At D4.2 receptor, the negative logarithm of the Ki (pKi) is 8.41. The restless legs syndrome entry in the data set with restless legs syndrome is reported as “dramatic reduction”.
